Laboratory results reported in ChEMBL document CHEMBL4371076 (J Med Chem, 2019).
pIC50: −log10 of the molar value. The source made the active and inactive calls. The rule behind the calls is not given here.

Assays:
[1] = Unbound plasma concentration in CD1 mouse model of formalin-induced nociception at 30 mg/kg, po; type: ADME, organism-based; details: in vivo
[2] = Unbound drug level in DRG neurons of CD1 mouse model of formalin-induced nociception at 30 mg/kg, po; type: ADME, organism-based, DRG neuron; details: in vivo
Mus musculus [3] = experiment: Analgesic activity in CD1 mouse model of formalin-induced nociception assessed as reduction in formalin-evoked paw flinching/licking response during first phase at 30 mg/kg, po pretreated for 30 mins followed by formalin treatment and measured during first 5 mins post formalin injection; type: functional, organism-based
[4] = Plasma concentration in CD1 mouse model of formalin-induced nociception at 30 mg/kg, po; type: ADME, organism-based; details: read-out: Cp, in vivo
[5] = Drug uptake in DRG neurons of CD1 mouse model of formalin-induced nociception at 30 mg/kg, po; type: ADME, organism-based, DRG neuron; details: in vivo, read-out: Drug uptake
[6] = target: T1, Sodium channel protein type 9 subunit alpha (Mus musculus, UniProt Q62205); experiment: Inhibition of Nav1.7 in mouse DRG neurons at -70 mV holding potential by patch clamp electrophysiology method
Cytochrome P450 3A4 [7] = target: T2, Cytochrome P450 3A4 (Homo sapiens, UniProt P08684); experiment: Time-dependant inhibition of CYP3A4 in human liver microsomes; type: ADME
T2 sequence (P08684 whole entry): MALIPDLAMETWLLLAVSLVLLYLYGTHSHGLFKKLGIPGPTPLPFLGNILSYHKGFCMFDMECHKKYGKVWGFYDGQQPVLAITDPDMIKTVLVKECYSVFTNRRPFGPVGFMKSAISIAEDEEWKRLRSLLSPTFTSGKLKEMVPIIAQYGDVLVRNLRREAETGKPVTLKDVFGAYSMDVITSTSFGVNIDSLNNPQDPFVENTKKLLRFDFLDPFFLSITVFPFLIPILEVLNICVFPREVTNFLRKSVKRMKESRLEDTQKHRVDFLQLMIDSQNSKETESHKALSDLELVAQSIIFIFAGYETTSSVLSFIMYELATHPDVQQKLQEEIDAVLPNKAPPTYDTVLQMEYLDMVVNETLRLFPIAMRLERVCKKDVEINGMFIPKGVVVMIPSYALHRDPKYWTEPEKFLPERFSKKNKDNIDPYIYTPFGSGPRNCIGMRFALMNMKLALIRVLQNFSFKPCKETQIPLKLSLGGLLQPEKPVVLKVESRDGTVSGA

Cytochrome P450 2C19 [8] = target: T3, Cytochrome P450 2C19 (Homo sapiens, UniProt P33261); experiment: Inhibition of CYP2C19 in human liver microsomes; type: ADME; details: human, microsomes
T3 sequence (P33261 whole entry): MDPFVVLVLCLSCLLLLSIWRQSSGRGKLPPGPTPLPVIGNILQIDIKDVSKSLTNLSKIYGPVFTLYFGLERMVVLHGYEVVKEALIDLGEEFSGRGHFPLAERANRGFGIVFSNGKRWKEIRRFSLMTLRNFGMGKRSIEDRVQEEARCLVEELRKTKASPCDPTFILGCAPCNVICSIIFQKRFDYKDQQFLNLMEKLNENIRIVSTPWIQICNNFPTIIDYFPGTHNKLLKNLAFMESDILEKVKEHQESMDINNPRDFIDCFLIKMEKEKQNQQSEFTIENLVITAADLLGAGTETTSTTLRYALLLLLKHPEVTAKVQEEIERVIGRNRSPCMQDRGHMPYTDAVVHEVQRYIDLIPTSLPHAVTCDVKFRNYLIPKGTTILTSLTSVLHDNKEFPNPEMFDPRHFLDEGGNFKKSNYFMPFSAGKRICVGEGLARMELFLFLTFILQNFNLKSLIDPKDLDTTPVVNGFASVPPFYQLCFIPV

Cytochrome P450 2D6 [9] = target: T4, Cytochrome P450 2D6 (Homo sapiens, UniProt P10635); experiment: Time-dependant inhibition of CYP2D6 in human liver microsomes; type: ADME
T4 sequence (P10635 whole entry): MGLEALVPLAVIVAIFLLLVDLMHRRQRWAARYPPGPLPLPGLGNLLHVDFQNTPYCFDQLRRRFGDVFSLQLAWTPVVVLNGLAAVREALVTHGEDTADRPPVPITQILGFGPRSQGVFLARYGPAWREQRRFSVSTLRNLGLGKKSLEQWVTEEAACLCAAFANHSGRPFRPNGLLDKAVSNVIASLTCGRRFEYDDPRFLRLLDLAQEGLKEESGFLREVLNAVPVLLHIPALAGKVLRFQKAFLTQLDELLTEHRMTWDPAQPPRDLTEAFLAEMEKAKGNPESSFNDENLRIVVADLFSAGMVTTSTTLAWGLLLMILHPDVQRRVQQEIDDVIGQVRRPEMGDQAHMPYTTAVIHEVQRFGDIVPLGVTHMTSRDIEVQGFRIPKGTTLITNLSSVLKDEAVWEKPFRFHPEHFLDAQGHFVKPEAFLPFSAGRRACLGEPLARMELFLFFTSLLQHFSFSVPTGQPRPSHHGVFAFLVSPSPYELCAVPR

[10] = Permeability of the compound at pH 7.4 by PAMPA; type: ADME; details: read-out: permeability
Cytochrome P450 2D6 [11] = target: T4, Cytochrome P450 2D6; experiment: Inhibition of CYP2D6 in human liver microsomes; type: ADME; details: human, microsomes
[12] = Metabolic stability in rat liver microsomes assessed as parent compound remaining at 0.5 uM after 10 mins; type: ADME, Microsome; details: read-out: Stability
Cytochrome P450 2B6 [13] = target: T5, Cytochrome P450 2B6 (Homo sapiens, UniProt P20813); experiment: Time-dependant inhibition of CYP2B6 in human liver microsomes; type: ADME
T5 sequence (P20813 whole entry): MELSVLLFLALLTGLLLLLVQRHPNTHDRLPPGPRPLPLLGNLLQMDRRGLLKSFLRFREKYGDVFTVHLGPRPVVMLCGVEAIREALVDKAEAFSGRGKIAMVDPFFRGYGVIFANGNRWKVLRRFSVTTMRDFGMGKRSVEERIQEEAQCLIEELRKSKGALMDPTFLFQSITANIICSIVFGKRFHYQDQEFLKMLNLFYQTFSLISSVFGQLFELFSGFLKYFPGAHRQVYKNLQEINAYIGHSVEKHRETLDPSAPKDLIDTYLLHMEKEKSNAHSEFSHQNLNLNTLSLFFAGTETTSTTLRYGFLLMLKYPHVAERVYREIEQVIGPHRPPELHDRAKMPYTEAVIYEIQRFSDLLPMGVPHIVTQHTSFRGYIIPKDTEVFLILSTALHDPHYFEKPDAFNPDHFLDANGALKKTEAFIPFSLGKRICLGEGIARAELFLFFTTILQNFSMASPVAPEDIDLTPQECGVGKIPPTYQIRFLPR

Cytochrome P450 2B6 [14] = target: T5, Cytochrome P450 2B6; experiment: Inhibition of CYP2B6 in human liver microsomes; type: ADME; details: human, microsomes
[15] = target: T6, Sodium channel protein type 9 subunit alpha (Homo sapiens, UniProt Q15858); experiment: Inhibition of recombinant human Nav1.7 expressed in HEK293 cells at -70 mV holding potential by patch clamp electrophysiology method; type: cell-based
T6 sequence (Q15858 whole entry): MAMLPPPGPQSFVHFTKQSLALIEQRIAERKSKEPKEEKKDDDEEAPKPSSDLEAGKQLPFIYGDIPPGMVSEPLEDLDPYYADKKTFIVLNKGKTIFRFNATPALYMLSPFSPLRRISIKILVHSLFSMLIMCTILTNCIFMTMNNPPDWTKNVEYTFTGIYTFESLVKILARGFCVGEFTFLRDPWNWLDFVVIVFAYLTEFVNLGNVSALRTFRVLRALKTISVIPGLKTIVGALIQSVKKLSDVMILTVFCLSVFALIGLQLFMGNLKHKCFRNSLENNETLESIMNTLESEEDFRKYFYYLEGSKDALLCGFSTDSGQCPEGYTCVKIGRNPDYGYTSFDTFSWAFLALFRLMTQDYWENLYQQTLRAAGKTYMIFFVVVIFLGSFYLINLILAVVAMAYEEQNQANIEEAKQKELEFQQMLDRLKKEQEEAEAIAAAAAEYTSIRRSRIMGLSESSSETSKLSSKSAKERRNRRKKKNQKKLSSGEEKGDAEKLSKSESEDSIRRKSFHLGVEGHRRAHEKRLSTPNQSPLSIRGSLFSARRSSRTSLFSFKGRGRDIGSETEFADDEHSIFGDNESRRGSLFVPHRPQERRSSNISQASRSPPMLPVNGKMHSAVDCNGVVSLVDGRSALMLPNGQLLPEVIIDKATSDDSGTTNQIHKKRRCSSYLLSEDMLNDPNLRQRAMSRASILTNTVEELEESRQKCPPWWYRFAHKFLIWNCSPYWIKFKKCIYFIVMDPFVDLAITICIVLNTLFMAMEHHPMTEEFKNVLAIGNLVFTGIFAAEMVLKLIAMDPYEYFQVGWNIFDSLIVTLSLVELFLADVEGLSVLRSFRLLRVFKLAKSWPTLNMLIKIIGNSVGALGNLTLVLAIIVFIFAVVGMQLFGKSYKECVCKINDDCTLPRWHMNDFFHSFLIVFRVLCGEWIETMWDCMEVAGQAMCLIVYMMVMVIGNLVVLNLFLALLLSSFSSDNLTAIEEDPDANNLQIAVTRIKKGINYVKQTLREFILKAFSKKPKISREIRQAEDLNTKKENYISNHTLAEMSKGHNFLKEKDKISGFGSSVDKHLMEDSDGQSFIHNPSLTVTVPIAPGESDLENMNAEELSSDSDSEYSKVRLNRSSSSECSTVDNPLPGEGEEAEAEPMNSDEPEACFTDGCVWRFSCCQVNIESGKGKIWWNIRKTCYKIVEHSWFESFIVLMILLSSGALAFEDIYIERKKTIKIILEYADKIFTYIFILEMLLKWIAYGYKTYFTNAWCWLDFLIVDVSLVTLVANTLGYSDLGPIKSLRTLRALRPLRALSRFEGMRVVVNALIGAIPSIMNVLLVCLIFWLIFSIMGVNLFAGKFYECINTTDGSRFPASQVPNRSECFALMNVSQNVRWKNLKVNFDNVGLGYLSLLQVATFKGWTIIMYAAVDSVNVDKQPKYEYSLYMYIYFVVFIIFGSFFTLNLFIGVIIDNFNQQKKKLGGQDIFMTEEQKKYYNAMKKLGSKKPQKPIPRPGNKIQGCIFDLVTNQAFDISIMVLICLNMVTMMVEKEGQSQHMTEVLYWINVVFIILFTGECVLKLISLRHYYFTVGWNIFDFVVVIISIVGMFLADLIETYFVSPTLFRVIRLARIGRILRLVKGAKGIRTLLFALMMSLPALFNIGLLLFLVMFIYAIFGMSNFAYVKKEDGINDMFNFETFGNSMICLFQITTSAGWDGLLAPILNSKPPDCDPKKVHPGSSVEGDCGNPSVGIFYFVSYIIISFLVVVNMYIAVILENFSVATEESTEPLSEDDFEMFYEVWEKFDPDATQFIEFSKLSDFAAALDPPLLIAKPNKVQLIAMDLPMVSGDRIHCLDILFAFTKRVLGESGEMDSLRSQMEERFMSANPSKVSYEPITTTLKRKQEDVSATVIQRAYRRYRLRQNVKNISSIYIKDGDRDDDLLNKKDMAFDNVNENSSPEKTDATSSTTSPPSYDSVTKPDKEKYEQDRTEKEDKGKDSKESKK

Cytochrome P450 2C19 [16] = target: T3, Cytochrome P450 2C19; experiment: Time-dependant inhibition of CYP2C19 in human liver microsomes; type: ADME
[17] = Unbound plasma concentration in CD1 mouse model of formalin-induced nociception at 3 mg/kg, po; type: ADME, organism-based; details: in vivo
Cytochrome P450 3A4 [18] = target: T2, Cytochrome P450 3A4; experiment: Inhibition of CYP3A4 in human liver microsomes; type: ADME; details: human, microsomes
[19] = Toxicity in CD1 mouse model of formalin-induced nociception assessed as prostration or sedation at 30 mg/kg, po; type: organism-based; details: in vivo
[20] = Metabolic stability in mouse liver microsomes assessed as parent compound remaining at 0.5 uM after 10 mins; type: ADME, Microsome; details: read-out: Stability
Cytochrome P450 2C8 [21] = target: T7, Cytochrome P450 2C8 (Homo sapiens, UniProt P10632); experiment: Time-dependant inhibition of CYP2C8 in human liver microsomes; type: ADME
T7 sequence (P10632 whole entry): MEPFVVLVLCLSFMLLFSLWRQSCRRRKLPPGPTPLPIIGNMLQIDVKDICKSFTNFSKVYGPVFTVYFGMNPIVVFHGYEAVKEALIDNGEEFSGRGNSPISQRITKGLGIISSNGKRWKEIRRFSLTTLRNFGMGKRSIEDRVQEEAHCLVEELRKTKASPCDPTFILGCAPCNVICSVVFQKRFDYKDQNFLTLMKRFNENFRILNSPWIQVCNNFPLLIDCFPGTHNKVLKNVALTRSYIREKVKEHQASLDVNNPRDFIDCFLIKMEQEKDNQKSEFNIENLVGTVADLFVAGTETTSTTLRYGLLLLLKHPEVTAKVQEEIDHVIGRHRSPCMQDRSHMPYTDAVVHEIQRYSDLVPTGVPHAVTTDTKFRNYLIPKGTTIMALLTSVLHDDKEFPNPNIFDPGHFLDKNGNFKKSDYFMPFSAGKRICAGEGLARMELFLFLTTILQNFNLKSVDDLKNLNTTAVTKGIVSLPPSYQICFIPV

[22] = Fraction unbound in mouse plasma; type: ADME, cell-free
Cytochrome P450 2C9 [23] = target: T8, Cytochrome P450 2C9 (Homo sapiens, UniProt P11712); experiment: Time-dependant inhibition of CYP2C9 in human liver microsomes; type: ADME
T8 sequence (P11712 whole entry): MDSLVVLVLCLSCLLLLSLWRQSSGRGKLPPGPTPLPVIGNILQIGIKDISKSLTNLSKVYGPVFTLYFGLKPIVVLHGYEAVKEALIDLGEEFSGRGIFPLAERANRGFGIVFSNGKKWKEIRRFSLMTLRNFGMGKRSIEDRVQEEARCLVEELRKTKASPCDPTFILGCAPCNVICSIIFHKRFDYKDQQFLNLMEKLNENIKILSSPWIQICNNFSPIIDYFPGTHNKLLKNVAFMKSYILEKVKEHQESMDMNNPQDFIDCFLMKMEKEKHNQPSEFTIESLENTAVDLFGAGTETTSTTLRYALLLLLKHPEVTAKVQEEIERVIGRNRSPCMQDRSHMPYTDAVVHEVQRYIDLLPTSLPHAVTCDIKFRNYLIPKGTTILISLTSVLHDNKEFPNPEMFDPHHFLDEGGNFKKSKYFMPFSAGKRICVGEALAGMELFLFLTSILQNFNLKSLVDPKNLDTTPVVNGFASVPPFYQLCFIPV

[24] = Metabolic stability in human liver microsomes assessed as parent compound remaining at 0.5 uM after 10 mins; type: ADME, Microsome; details: read-out: Stability
[25] = Plasma concentration in CD1 mouse model of formalin-induced nociception at 3 mg/kg, po; type: ADME, organism-based; details: read-out: Cp, in vivo
Cytochrome P450 2C9 [26] = target: T8, Cytochrome P450 2C9; experiment: Inhibition of CYP2C9 in human liver microsomes; type: ADME; details: human, microsomes
Cytochrome P450 2C8 [27] = target: T7, Cytochrome P450 2C8; experiment: Inhibition of CYP2C8 in human liver microsomes; type: ADME; details: human, microsomes
[28] = Permeability of the compound at pH 5.5 by PAMPA; type: ADME; details: read-out: permeability
[29] = Toxicity in CD1 mouse model of formalin-induced nociception assessed as hypothermia at 30 mg/kg, po; type: organism-based; details: in vivo
Mus musculus [30] = experiment: Analgesic activity in CD1 mouse model of formalin-induced nociception assessed as reduction in formalin-evoked paw flinching/licking response during second phase at 30 mg/kg, po pretreated for 30 mins followed by formalin treatment and measured during 15 to 45 mins post formalin injection; type: functional, organism-based
[31] = Fraction unbound in human plasma; type: ADME, cell-free
[32] = target: T6, Sodium channel protein type 9 subunit alpha; experiment: Inhibition of human Nav1.7 expressed in HEK293 cells after 600 secs at -60 mV holding potential by ion works barracuda population patch clamp method; type: cell-based
[33] = target: T1, Sodium channel protein type 9 subunit alpha; experiment: Inhibition of recombinant mouse Nav1.7 expressed in HEK293 cells at -70 mV holding potential by patch clamp electrophysiology method; type: cell-based
[34] = Permeability from apical to basolateral side in human Caco2 cells; type: ADME, cell-based; details: Caco-2, read-out: permeability
[35] = target: Sodium channel protein type 5 subunit alpha (Homo sapiens, UniProt Q14524); experiment: Inhibition of human Nav1.5 expressed in HEK293 cells after 600 secs at -50 mV holding potential by ion works barracuda population patch clamp method; type: cell-based
[36] = Efflux ratio of permeability in human Caco2 cells; type: ADME, cell-based; details: Caco-2
[37] = Permeability from basolateral to apical side in human Caco2 cells; type: ADME, cell-based; details: Caco-2, read-out: permeability

| SMILES | Cp(f) [1] | Activity (Mus musculus [3]) | concentration [4] | concentration [5] | TDI (Cytochrome P450 3A4 [7]) | inhibition (INH) (Cytochrome P450 2C19 [8]) | TDI (Cytochrome P450 2D6 [9]) | Papp [10] | inhibition (INH) (Cytochrome P450 2D6 [11]) | remaining at 10 min, 0.5 µM [12] | TDI (Cytochrome P450 2B6 [13]) | inhibition (INH) (Cytochrome P450 2B6 [14]) | pIC50 [15] | TDI (Cytochrome P450 2C19 [16]) | inhibition (INH) (Cytochrome P450 3A4 [18]) | Activity [19] | remaining at 10 min, 0.5 µM [20] | TDI (Cytochrome P450 2C8 [21]) | fraction unbound [22] | TDI (Cytochrome P450 2C9 [23]) | also measured |
| --- | --- | --- | --- | --- | --- | --- | --- | --- | --- | --- | --- | --- | --- | --- | --- | --- | --- | --- | --- | --- | --- |
| O=S(=O)(Nc1nccs1)c1cc(Cl)c(NCC23CCCN2CCC3)cc1F | 340 nM | inactive | 1400 nM | 340 nM |  |  |  |  |  |  |  |  |  |  |  |  |  |  |  |  | Drug uptake(free) [2]: 340 nM |
| CC(C)COc1ncc(-c2nn(C)c3cc(C(=O)NS(C)(=O)=O)ccc23)cc1Cl |  | inactive |  |  | Not Active | Not Active | Not Active | 41.7 ×10⁻⁶ cm/s | Not Active | 100% | Not Active | Not Active | 7.96 | Not Active | Not Active | Toxic | 100% | Not Active | 0.002 | Not Active | pIC50 [6]: 7.92; Cp(f) [17]: 0.56 nM; remaining at 10 min, 0.5 µM [24]: 100%; concentration [25]: 280 nM; inhibition (INH) (Cytochrome P450 2C9 [26]): Not Active; inhibition (INH) (Cytochrome P450 2C8 [27]): Not Active; Papp [28]: 116 ×10⁻⁶ cm/s; Activity [29]: Toxic; Activity (Mus musculus [30]): inactive |
| CC(C)COc1ncc(-c2cn(C)c3cc(C(=O)NS(=O)(=O)C4CC4)c(F)cc23)cc1Cl | 116 nM | inactive | 58000 nM | 11000 nM | Not Active | Not Active | Not Active | 31 ×10⁻⁶ cm/s | Not Active | 37% | Not Active | Not Active | 8.48 | Not Active | Not Active | Non-Toxic | 100% | Not Active | 0.002 | Not Active | fraction unbound [31]: < 0.001; pIC50 [32]: 6.64; pIC50 [33]: 8.00; remaining at 10 min, 0.5 µM [24]: 100%; Papp A→B [34]: 3.4 ×10⁻⁶ cm/s; inhibition (INH) (Cytochrome P450 2C9 [26]): Not Active; pIC50 [35]: 5.29; inhibition (INH) (Cytochrome P450 2C8 [27]): Not Active; efflux ratio [36]: 3; Papp [28]: 33.5 ×10⁻⁶ cm/s; Activity [29]: Non-Toxic; Papp B→A [37]: 10.2 ×10⁻⁶ cm/s; Activity (Mus musculus [30]): inactive |
